Measured values from article PMC11618052, “Design, synthesis, and antiproliferative activity of new 1,2,3-triazole/quinazoline-4-one hybrids as dual EGFR/BRAF^V600E inhibitors” (RSC Advances, 2024).

Key:
breast cancer (MCF-7) = test: Antiproliferative MTT assay, MCF-7; type: cell-based; details: Homo sapiens, MCF7, MCF-7 breast cancer cells, read-out: Antiproliferative activity IC50 ± SEM, MCF-7
Protocol: (§1) The median inhibitory concentration (IC50) and GI50 (mean IC50) for the four cancer cell lines were calculated. Appendix A ^† contains more details. […]

[1] = Cell viability MTT assay on MCF-10A normal cells; type: cell-based; details: human, MCF-10A normal mammary gland epithelial cells, MCF-10A cells, four days of incubation
Protocol: The viability of new compounds 8a–t was evaluated using the MCF-10A normal human mammary gland epithelial cell line. The cell viability of compounds 8a–t was examined using the MTT assay[36] after four days of incubation with MCF-10A cells. For more details, see Appendix A (ESI file). ^† […]
We evaluated the viability of new compounds 8a–t using the MCF-10A normal human mammary gland epithelial cell line. The cell viability of compounds 8a–t was examined using the MTT assay[36] after four days of incubation with MCF-10A cells.
4.2. Biological evaluation
4.2.1. Cytotoxic activity using MTT Assay and evaluation of IC 50
MTT assay was carried out to study the effect of compounds on mammary epithelial cells (MCF-10A). The medium in which cells were propagated contained Dulbecco's modified Eagle's medium (DMEM)/ Ham's F-12 medium (1:1) supplemented with epidermal growth factor (20 ng/mL), hydrocortisone (500 ng/mL), insulin (10 μg/mL), 2 mM glutamine and 10% foetal calf serum.
After every 2-3 days, the cells were passaged using trypsin ethylenediamine tetra acetic acid (EDTA). The cells were seeded at a density of 10^4 cells mL-1 in flat-bottomed culture plates containing 96 wells each. After 24 h, medium was removed from the plates and the compounds in (in 0.1% DMSO) were added (in 200 μL medium to yield a final concentration of 0.1% v/v) to the wells of plates. A single compound was designated with four wells followed by incubation of plates for 96h at 37°C. After incubation, medium was removed completely from the plates followed by addition of MTT (0.4 mg/mL in medium) to each well and subsequent incubation of plates for 3h. MTT (along with the medium) was removed and DMSO (150μL) was added to each well of the culture plates, followed by vortexing and subsequent measurement of absorbance (at 540 nm) using microplate reader. The data are shown as percentage inhibition of proliferation in comparison with controls containing 0.1% DMSO. […]

lung cancer (A-549) = test: Antiproliferative MTT assay, A-549; type: cell-based; details: Homo sapiens, A549, A-549 lung cancer cells, read-out: Antiproliferative activity IC50 ± SEM, A-549
Protocol: as §1

[2] = tested on: four human cancer cell lines (A-549, MCF-7, Panc-1, HT-29); test: Antiproliferative MTT assay, mean over the four cancer cell lines; type: cell-based; details: for GI50: mean IC50 over A-549, MCF-7, Panc-1, HT-29
Protocol: as §1

colon cancer (HT-29) = test: Antiproliferative MTT assay, HT-29; type: cell-based; details: Homo sapiens, HT-29 colon cancer cells, read-out: Antiproliferative activity IC50 ± SEM, HT-29
Protocol: as §1

[3] = tested on: pancreatic cancer (Panc-1); test: Antiproliferative MTT assay, Panc-1; type: cell-based; details: Homo sapiens, Panc-1 pancreatic cancer cells, read-out: Antiproliferative activity IC50 ± SEM, Panc-1
Protocol: as §1

EGFR = biological target: T1, EGFR (Homo sapiens, UniProt P00533); test: EGFR-TK inhibitory assay; type: biochemical; details: read-out: EGFR inhibition IC50 ± SEM
T1 construct: 645–1186; His6 (N); made in house; host or cells: Sf-9 insect cells (baculovirus; pBlueBacHis2B / pFASTBacHTc)
T1 sequence (P00533 669-1210): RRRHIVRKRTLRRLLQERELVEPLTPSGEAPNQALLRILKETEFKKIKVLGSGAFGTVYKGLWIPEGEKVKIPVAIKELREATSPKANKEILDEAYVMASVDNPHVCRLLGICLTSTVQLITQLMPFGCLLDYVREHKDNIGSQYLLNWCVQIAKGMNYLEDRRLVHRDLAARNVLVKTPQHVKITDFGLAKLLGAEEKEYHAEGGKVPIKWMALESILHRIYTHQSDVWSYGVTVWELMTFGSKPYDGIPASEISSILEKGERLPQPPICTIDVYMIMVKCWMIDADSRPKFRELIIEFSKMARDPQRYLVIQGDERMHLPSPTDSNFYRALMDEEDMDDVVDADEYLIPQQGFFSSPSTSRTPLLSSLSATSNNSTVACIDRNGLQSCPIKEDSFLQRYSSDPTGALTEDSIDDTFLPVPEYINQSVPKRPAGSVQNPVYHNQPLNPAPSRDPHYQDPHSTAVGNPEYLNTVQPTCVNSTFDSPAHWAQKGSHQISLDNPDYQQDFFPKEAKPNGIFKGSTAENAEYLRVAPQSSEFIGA
Protocol: Sf-9 cells were infected for 72h for protein expression. […]
centrifugation for 20 min.
Histidine-linked proteins were first eluted with 250 and then […]
using wash buffer. Europium-tagged antiphosphotyrosine antibody (75 µL, 400 ng) was added to each well followed by incubation of 1h and then washing of the plates using buffer. The enhancement solution was added to each well and the signal was recorded at excitation and […]
The autophosphorylation percentage inhibition by compounds was calculated using the following equation: […]

BRAF^V600E = BRAF^V600E kinase inhibitory assay
BRAF^V600E, sequence (P28028 whole entry V585E): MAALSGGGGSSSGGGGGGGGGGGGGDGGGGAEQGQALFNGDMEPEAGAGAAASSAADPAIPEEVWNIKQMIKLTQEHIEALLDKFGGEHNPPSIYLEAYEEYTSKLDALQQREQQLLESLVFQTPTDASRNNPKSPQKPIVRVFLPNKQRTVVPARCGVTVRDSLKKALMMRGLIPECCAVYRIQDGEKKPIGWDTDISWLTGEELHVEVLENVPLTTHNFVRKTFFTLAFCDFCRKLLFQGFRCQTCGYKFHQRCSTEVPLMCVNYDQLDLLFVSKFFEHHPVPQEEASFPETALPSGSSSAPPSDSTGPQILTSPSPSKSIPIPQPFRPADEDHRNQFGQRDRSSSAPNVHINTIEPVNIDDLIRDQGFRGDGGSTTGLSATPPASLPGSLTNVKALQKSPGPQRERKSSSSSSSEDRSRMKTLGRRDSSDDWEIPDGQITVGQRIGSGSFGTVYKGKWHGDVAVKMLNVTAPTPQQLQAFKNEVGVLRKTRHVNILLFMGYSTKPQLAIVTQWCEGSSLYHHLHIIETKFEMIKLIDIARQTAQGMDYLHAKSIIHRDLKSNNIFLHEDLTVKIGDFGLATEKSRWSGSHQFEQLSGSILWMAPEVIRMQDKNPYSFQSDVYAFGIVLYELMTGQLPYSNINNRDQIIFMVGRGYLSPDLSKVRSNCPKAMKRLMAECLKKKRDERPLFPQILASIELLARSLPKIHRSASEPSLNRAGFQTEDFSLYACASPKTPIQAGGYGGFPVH
Protocol: V600E mutant BRAF kinase assay was performed to investigate the activity of tested compounds against BRAF. Mouse full-length GST-tagged BRAFV600E (7.5 ng, Invitrogen, PV3849) was pre-incubated with drug (1 µL) and assay dilution buffer (4 µL) for 60 min at 25 °C. In assay dilution buffer, a solution (5 µL) containing MgCl2 (30 mM), ATP (200 µM), recombinant human full length (200 ng) and N-terminal His-tagged MEK1 (Invitrogen) was added to start the assay, subsequent to incubation for 25 min at 25 °C. The assay was stopped using 5X protein denaturing buffer (LDS) solution (5 µL). To further denature the protein, heat (70° C) was applied for 5 min.
10 µL of each reaction was loaded into the precast plates and electrophoresis was allowed to proceed. After completion of electrophoresis, the front part of the precast gel plate (holding hot ATP) was cut and afterwards cast-off. The dried gel was developed using a phosphor screen. A

| Compound | IC50 (breast cancer (MCF-7)) [nM] | IC50 (lung cancer (A-549)) [nM] | GI50 ([2]; Homo sapiens) [nM] | IC50 (colon cancer (HT-29)) [nM] | IC50 [3] [nM] | Fold less potent than compound 8g (GI50) ([2]; GI50 versus methoxy derivative 8g) | IC50 (EGFR) [nM] | IC50 (BRAF^V600E) [nM] | GI50 [2] [nM] | viability at 4 days, 50 µM [1] [%] |
| --- | --- | --- | --- | --- | --- | --- | --- | --- | --- | --- |
| O=c1c2ccccc2nc(SCc2cn(-c3ccccc3)nn2)n1-c1ccccc1 [Compound 8a, 2-(((1-Phenyl-1H-1,2,3-triazol-4-yl)methyl)thio)-3-phenyl quinazolin-4(3H)-one] | 56 ± 5 | 61 ± 5 | 61 | 64 ± 5 | 64 ± 5 |  |  |  |  | 89 |
| O=c1c2ccccc2nc(SCc2cn(-c3ccc(Cl)cc3)nn2)n1-c1ccccc1 [Compound 8b, 2-(((1-(4-Chlorophenyl)-1H-1,2,3-triazol-4-yl)methyl)thio)-3-phenyl quinazolin-4(3H)-one] | 36 ± 3 | 40 ± 3 | 41 | 44 ± 3 | 42 ± 3 |  |  |  |  | 90 |
| COc1ccc(-n2cc(CSc3nc4ccccc4c(=O)n3-c3ccccc3)nn2)cc1 [Compound 8c, 2-(((1-(4-Methoxyphenyl)-1H-1,2,3-triazol-4-yl)methyl)thio)-3-phenylquinazolin-4(3H)-one] | 42 ± 3 | 47 ± 3 | 47 | 49 ± 3 | 49 ± 3 |  |  |  |  | 86 |
| Cc1ccc(-n2cc(CSc3nc4ccccc4c(=O)n3-c3ccccc3)nn2)cc1 [Compound 8d, 2-(((1-(p-Tolyl)-1H-1,2,3-triazol-4-yl)methyl)thio)-3-phenylquinazolin-4(3H)-one] | 48 ± 4 | 53 ± 4 | 53 | 56 ± 4 | 56 ± 4 |  |  |  |  | 89 |
| Cc1ccc(-n2c(SCc3cn(-c4ccccc4)nn3)nc3ccccc3c2=O)cc1 [Compound 8e, 2-(((1-Phenyl-1H-1,2,3-triazol-4-yl)methyl)thio)-3-(p-tolyl)quinazolin-4(3H)-one] | 85 ± 8 | 88 ± 8 | 89 | 92 ± 8 | 92 ± 8 | 4 |  |  |  | 90 |
| Cc1ccc(-n2c(SCc3cn(-c4ccc(Cl)cc4)nn3)nc3ccccc3c2=O)cc1 [Compound 8f, 2-(((1-(4-Chlorophenyl)-1H-1,2,3-triazol-4-yl)methyl)thio)-3-(p-tolyl)quinazolin-4(3H)-one] | 34 ± 3 | 37 ± 3 | 37 | 39 ± 3 | 38 ± 3 |  | 89 ± 5 | 69 ± 5 |  | 87 |
| Cc1cccc(-n2c(SCc3cn(-c4ccccc4)nn3)nc3ccccc3c2=O)c1 [Compound 8i, 2-(((1-Phenyl-1H-1,2,3-triazol-4-yl)methyl)thio)-3-(m-tolyl)quinazolin-4(3H)-one] | 59 ± 5 | 65 ± 5 | 65 | 68 ± 6 | 68 ± 6 |  |  |  |  | 90 |
| Cc1cccc(-n2c(SCc3cn(-c4ccc(Cl)cc4)nn3)nc3ccccc3c2=O)c1 [Compound 8j, 2-(((1-(4-Chlorophenyl)-1H-1,2,3-triazol-4-yl)methyl)thio)-3-(m-tolyl)quinazolin-4(3H)-one] | 26 ± 2 | 29 ± 2 | 33 | 30 ± 2 | 31 ± 2 |  | 78 ± 5 | 61 ± 5 | 29 | 87 |
| C#Cc1cccc(Nc2ncnc3cc(OCCOC)c(OCCOC)cc23)c1 [Erlotinib, reference compound] | 40 ± 3 | 30 ± 3 |  | 30 ± 3 | 30 ± 3 |  |  |  |  |  |

More lines, main results first:

| IC50 (breast cancer (MCF-7)) [nM] | IC50 (lung cancer (A-549)) [nM] | GI50 ([2]; Homo sapiens) [nM] | IC50 (colon cancer (HT-29)) [nM] | IC50 [3] [nM] | Fold less potent than compound 8g (GI50) ([2]; GI50 versus methoxy derivative 8g) | IC50 (EGFR) [nM] | IC50 (BRAF^V600E) [nM] | GI50 [2] [nM] | Compound | viability at 4 days, 50 µM [1] [%] |
| --- | --- | --- | --- | --- | --- | --- | --- | --- | --- | --- |
| 39 ± 3 | 42 ± 3 | 43 | 45 ± 3 | 46 ± 3 |  |  |  |  | COc1ccc(-n2cc(CSc3nc4ccccc4c(=O)n3-c3cccc(C)c3)nn2)cc1 [Compound 8k, 2-(((1-(4-Methoxyphenyl)-1H-1,2,3-triazol-4-yl)methyl)thio)-3-(m-tolyl)quinazolin-4(3H)-one] | 85 |
| 29 ± 2 | 33 ± 2 | 33 | 35 ± 2 | 36 ± 2 |  | 83 ± 5 | 64 ± 5 |  | Cc1ccc(-n2cc(CSc3nc4ccccc4c(=O)n3-c3cccc(C)c3)nn2)cc1 [Compound 8l, 2-(((1-(p-Tolyl)-1H-1,2,3-triazol-4-yl)methyl)thio)-3-(m-tolyl)quinazolin-4(3H)-one] | 87 |
| 68 ± 6 | 72 ± 6 | 72 | 74 ± 6 | 74 ± 6 |  |  |  |  | CCn1c(SCc2cn(-c3ccccc3)nn2)nc2ccccc2c1=O [Compound 8m, 2-(((1-Phenyl-1H-1,2,3-triazol-4-yl)methyl)thio)-3-ethyl quinazolin-4(3H)-one] | 90 |
| 71 ± 6 | 75 ± 6 | 76 | 79 ± 6 | 78 ± 6 |  |  |  |  | CCn1c(SCc2cn(-c3ccc(Cl)cc3)nn2)nc2ccccc2c1=O [Compound 8n, 2-(((1-(4-Chlorophenyl)-1H-1,2,3-triazol-4-yl)methyl)thio)-3-ethyl quinazolin-4(3H)-one] | 92 |
| 63 ± 5 | 69 ± 5 | 70 | 74 ± 6 | 74 ± 6 |  |  |  |  | CCn1c(SCc2cn(-c3ccc(OC)cc3)nn2)nc2ccccc2c1=O [Compound 8o, 2-(((1-(4-Methoxyphenyl)-1H-1,2,3-triazol-4-yl)methyl)thio)-3-ethyl quinazolin-4(3H)-one] | 89 |
| 77 ± 7 | 82 ± 7 | 82 | 85 ± 7 | 84 ± 7 |  |  |  |  | CCn1c(SCc2cn(-c3ccc(C)cc3)nn2)nc2ccccc2c1=O [Compound 8p, 2-(((1-(p-Tolyl)-1H-1,2,3-triazol-4-yl)methyl)thio)-3-ethylquinazolin-4(3H)-one] | 86 |
| 89 ± 8 | 93 ± 8 | 94 | 96 ± 8 | 96 ± 8 |  |  |  |  | C=CCn1c(SCc2cn(-c3ccccc3)nn2)nc2ccccc2c1=O [Compound 8q, 2-(((1-Phenyl-1H-1,2,3-triazol-4-yl)methyl)thio)-3-allyl quinazolin-4(3H)-one] | 87 |
| 75 ± 6 | 79 ± 6 | 80 | 84 ± 7 | 81 ± 7 |  |  |  |  | C=CCn1c(SCc2cn(-c3ccc(Cl)cc3)nn2)nc2ccccc2c1=O [Compound 8r, 2-(((1-(4-Chlorophenyl)-1H-1,2,3-triazol-4-yl)methyl)thio)-3-allyl quinazolin-4(3H)-one] | 90 |
| 53 ± 4 | 57 ± 5 | 57 | 59 ± 5 | 59 ± 5 |  |  |  |  | C=CCn1c(SCc2cn(-c3ccc(OC)cc3)nn2)nc2ccccc2c1=O [Compound 8s, 2-(((1-(4-Methoxyphenyl)-1H-1,2,3-triazol-4-yl)methyl)thio)-3-allyl quinazolin-4(3H)-one] | 91 |
| 80 ± 7 | 84 ± 7 | 85 | 87 ± 7 | 87 ± 7 |  |  |  |  | C=CCn1c(SCc2cn(-c3ccc(C)cc3)nn2)nc2ccccc2c1=O [Compound 8t, 2-(((1-(p-Tolyl)-1H-1,2,3-triazol-4-yl)methyl)thio)-3-allyl quinazolin-4(3H)-one] | 90 |
